From patent publication US10301320B2, “Compositions and methods of modulating 15-PGDH activity” (CASE WESTERN RESERVE UNIVERSITY, priority 2012, dated 2019)
Where two headings read alike, the source gives them in different places.

Molecular target: recombinant 15-PGDH protein (Homo sapiens (Human), UniProt P15428)
Experiment: Inhibition of enzymatic activity of recombinant 15-PGDH in vitro;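 also: activity of recombinant human 15-PGDH assayed in vitro using PGE2 as the substrate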
Type: biochemical
Conditions: read-out: Enzyme inhibition % ([…]), recombinant 15-PGDH, […] compound
[1] = read-out: Enzyme inhibition % (2.5 μM)
[2] = read-out: Enzyme inhibition % (7.5 μM)

recombinant 15-PGDH protein, sequence (P15428 whole entry): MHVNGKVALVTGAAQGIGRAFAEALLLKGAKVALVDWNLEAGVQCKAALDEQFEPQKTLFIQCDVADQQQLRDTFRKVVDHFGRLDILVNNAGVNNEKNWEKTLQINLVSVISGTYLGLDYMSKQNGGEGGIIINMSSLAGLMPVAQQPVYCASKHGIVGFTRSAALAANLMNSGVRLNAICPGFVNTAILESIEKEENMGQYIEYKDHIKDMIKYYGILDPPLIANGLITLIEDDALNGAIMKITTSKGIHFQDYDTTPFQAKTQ

Row | SMILES | inhibition at […] [1] | inhibition at […] [2]
1 | COc1ccc(OC)c(N(CC(=O)N2CCCC2=O)S(=O)(=O)c2ccccc2)c1 [SW208002] | 34.7% | 59.2%
2 | COc1ccc(OC)c(N(CC(=O)N(C)c2cccnc2)S(=O)(=O)c2ccccc2)c1 [SW203686] | 14.9% | 34.2%
3 | COc1ccc(OC)c(N(CC(=O)N2CCCCCC2)S(=O)(=O)c2ccccc2)c1 [SW208000] | 5.82% | 12.5%
4 | CCCOC(=O)CN(c1cc(OC)ccc1OC)[S@SP3](=O)(=O)c1ccccc1 [SW202986] | -2.22% | 2.58%
5 | COc1ccc(OC)c(N(CC(=O)Nc2cc(C)cnc2Cl)S(=O)(=O)c2ccccc2)c1 [SW202972] | -6.29% | -2.94%
6 | COc1ccc(OC)c(N(CC(=O)N2CCCC2)S(=O)(=O)c2ccccc2)c1 [SW208001] | 21.8% | 27.7%
7 | COc1ccc(OC)c(N(CC(=O)Nc2ccnc(F)c2)S(=O)(=O)c2ccccc2)c1 [SW208005] | 44.1% | 52%
8 | COc1ccc(OC)c(N(CC(=O)Nc2cccnc2)C(C)=O)c1 [SW202952] | 29% | 57%
9 | COc1ccc(OC)c(N(CC(=O)OC(C)(C)C)S(=O)(=O)c2ccccc2)c1 [SW202979] | 3.92% | 6.24%
10 | COc1ccc(OC)c(N(CC(=O)OC2CCCCC2)S(=O)(=O)c2ccccc2)c1 [SW202978] | 4.14% | 3.12%
11 | COc1ccc(OC)c(N(CC(=O)N2CCc3ccccc32)S(=O)(=O)c2ccccc2)c1 [SW208003] | 15.2% | 20.9%
12 | COc1ccc(OC)c(NCC(=O)Nc2cccnc2)c1 [SW202948] | 28.3% | 56.7%
13 | COc1ccc(OC)c(N(CC(=O)Nc2ccccc2C)S(=O)(=O)c2ccccc2)c1 [SW202975] | -14.8% | 4.53%
14 | COc1ccc(OC)c(N(CC(=O)Nc2cccnc2)S(=O)(=O)c2ccccc2C#N)c1 [SW202945] | 8.83% | 11.1%
15 | COc1ccc(OC)c(N(CC(=O)Nc2cnccc2C)S(=O)(=O)c2ccccc2)c1 [SW202967] | -11.6% | 0.94%
16 | COc1ccc(OC)c(N(CC(=O)Nc2cccc(C)c2)S(=O)(=O)c2ccccc2)c1 [SW202969] | 0.91% | 9.43%
17 | COc1ccc(OC)c(N(CC(=O)Nc2cccnn2)S(=O)(=O)c2ccccc2)c1 [SW203680] | 34.8% | 62.1%
18 | COc1ccc(OC)c(N(CC(=O)Nc2cccnc2)S(=O)(=O)c2ccccc2F)c1 [SW202947] | 28.8% | 59.2%
19 | COc1ccc(OC)c(N(CC(=O)OC(C)C)S(=O)(=O)c2ccccc2)c1 [SW202971] | -0.72% | -13.2%
20 | COc1ccc(OC)c(N(CC(=O)Nc2cccnc2)S(=O)(=O)c2ccc(C(C)=O)cc2)c1 [SW202950] | 46.3% | 56.4%
21 | COc1ccc(OC)c(N(CC(=O)Nc2cncc(C)c2)S(=O)(=O)c2ccccc2)c1 [SW202974] | -4.42% | 24.9%
22 | COc1ccc(OC)c(N(CC(=O)Nc2ccncc2F)S(=O)(=O)c2ccccc2)c1 [SW208004] | 52.3% | 57%
23 | COc1ccc(OC)c(N(CC(=O)Nc2ccc(C)nc2)[S@SP3](=O)(=O)c2ccccc2)c1 [SW202988] | 10.3% | 33.7%
24 | COc1ccc(S(=O)(=O)N(CC(=O)Nc2ccncc2)c2cc(OC)ccc2OC)cc1 [SW202989] | 81.3% | 89.9%

Row | SMILES | inhibition at […] [1] | inhibition at […] [2]
25 | COc1ccc(OC)c(N(CC(=O)Nc2cncnc2)S(=O)(=O)c2ccccc2)c1 [SW203683] | 23.4% | 57.1%
26 | COc1ccc(OC)c(N(CC(=O)N2CCCCC2)S(=O)(=O)c2ccccc2)c1 [SW131633] | 23.1% | 35.2%
27 | COc1ccc(OC)c(N(CC(=O)Nc2ccncc2)S(=O)(=O)c2ccccc2)c1 [SW202938] | 52.7% | 75.6%
28 | COc1ccc(OC)c(N(CC(=O)Nc2cccnc2)S(=O)(=O)c2c(C)cc(C)cc2C)c1 [SW202953] | 8.81% | 15.1%
29 | COc1ccc(OC)c(N(CC(=O)Nc2ccnc(C)c2)S(=O)(=O)c2ccccc2)c1 [SW202966] | 44.7% | 61.4%
30 | CNC(=O)CN(c1cc(OC)ccc1OC)S(=O)(=O)c1ccccc1 [SW203682] | 15.7% | 36.2%
31 | COc1ccc(OC)c(N(CC(N)=O)S(=O)(=O)c2ccccc2)c1 [SW131635] | 11.8% | 35.4%
32 | COc1ccc(OC)c(N(CC(=O)Nc2cccnc2)S(=O)(=O)c2ccc(C)cc2)c1 [SW202939] | 53.5% | 78.3%
33 | COc1ccc(OC)c(N(CC(=O)Nc2cccnc2)S(=O)(=O)c2ccccc2C(F)(F)F)c1 [SW202944] | 28.3% | 57.8%
34 | COc1ccc(OC)c(N(CC(=O)Nc2ccc(Cl)nc2)S(=O)(=O)c2ccccc2)c1 [SW202970] | 17.5% | 48%
35 | COc1ccc(OC)c(N(CC(=O)Nc2cccnc2)S(=O)(=O)c2ccccc2OC(F)(F)F)c1 [SW202954] | 6.02% | 9.88%
36 | CCOC(=O)CN(c1cc(OC)ccc1OC)S(=O)(=O)c1ccccc1 [SW202951] | -15.4% | -8.59%
37 | COc1ccc(OC)c(N(CC(=O)Nc2ccccc2OC)S(=O)(=O)c2ccccc2)c1 [SW202965] | 11.3% | 33.1%
38 | COc1ccc(S(=O)(=O)N(CC(=O)Nc2cccnc2)c2cc(C(F)(F)F)ccc2C(F)(F)F)cc1 [SW208008] | 58.7% | 70.9%
39 | COc1ccc(OC)c(N(CC(=O)Nc2cccnc2)S(=O)(=O)c2ccccc2Cl)c1 [SW202949] | 12.5% | 34.4%
40 | COc1ccc(OC)c(N(CC(=O)Nc2nccs2)S(=O)(=O)c2ccccc2)c1 [SW203691] | 2.62% | –
41 | COc1ccc(OC)c(CN(CC(=O)Nc2cccnc2)S(=O)(=O)c2ccccc2)c1 [SW203688] | 13.1% | 40%
42 | COc1ccc(OC)c(N(CC(=O)Nc2ccccc2)S(=O)(=O)c2ccccc2)c1 [SW203687] | 15.1% | 33.5%
43 | COc1ccc(OC)c(N(CC(=O)Nc2cccc(Cl)c2)S(=O)(=O)c2ccccc2)c1 [SW202985] | 13.8% | 30.9%
44 | COc1ccc(OC)c(N(CC(=O)Nc2ccnc(Cl)c2)S(=O)(=O)c2ccccc2)c1 [SW202946] | 81.6% | 89.8%
45 | COc1ccc(OC)c(N(CC(=O)Nc2cccnc2)S(=O)(=O)c2cccc(C)c2)c1 [SW203684] | 36.4% | 64.7%
46 | COc1ccc(OC)c(N(CC(=O)Nc2cccnc2Cl)S(=O)(=O)c2ccccc2)c1 [SW202973] | 3.3% | 13.6%
47 | COc1cccc(NC(=O)CN(c2cc(OC)ccc2OC)S(=O)(=O)c2ccccc2)c1 [SW202976] | 7.87% | 29.8%
48 | COc1ccc(OC)c(N(CC(=O)Nc2ccccc2Cl)S(=O)(=O)c2ccccc2)c1 [SW202987] | 4.61% | 6.13%
